Source: the supplement of paper PMC8671470

What was measured:
Assay in all cases: cell viability (% survival relative to DMSO control); higher = less cytotoxic
Conditions in all cases: 72 h
[1] = tested on: myeloid leukemia patient primary cells Pat.1
Procedure, shortened: (§1)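 Thawed, Ficoll-purified mononuclear cells from AML or CML patients in RPMI 1640 with 10% FBS were seeded at 10,000 cells/well on 384-well plates pre-printed with 70 compounds at five tenfold concentrations, 1–10,000 nM, in duplicate, for 72 h. Viability was read by CellTiter-Glo and normalised to DMSO and 10 μM proteasome-inhibitor wells. Where given, area under the curve came from four-parameter log-logistic fits (drc, PharmacoGx R packages).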

[2] = tested on: myeloid leukemia patient primary cells Pat.3
Procedure, shortened: as §1

[3] = tested on: myeloid leukemia patient primary cells Pat.6
Procedure, shortened: as §1

[4] = tested on: myeloid leukemia patient primary cells Pat.8
Procedure, shortened: as §1

Structure (SMILES)	cell viability ([1]; 1 nM) [%]	cell viability ([1]; 10 nM) [%]	cell viability ([1]; 100 nM) [%]	cell viability ([1]; 1000 nM) [%]	cell viability ([1]; 10000 nM) [%]	cell viability ([2]; 1 nM) [%]	cell viability ([2]; 10 nM) [%]	cell viability ([2]; 100 nM) [%]	cell viability ([2]; 1000 nM) [%]	cell viability ([2]; 10000 nM) [%]	cell viability ([3]; 1 nM) [%]	cell viability ([3]; 10 nM) [%]	cell viability ([3]; 100 nM) [%]	cell viability ([3]; 1000 nM) [%]	cell viability ([3]; 10000 nM) [%]	cell viability ([4]; 1 nM) [%]	cell viability ([4]; 10 nM) [%]	cell viability ([4]; 100 nM) [%]	cell viability ([4]; 1000 nM) [%]	cell viability ([4]; 10000 nM) [%]
CC12CCC(O)CC1CCC1C2CCC2(C)C(C3=CC(=O)OC3)CCC12O (stereo not given) [Digitoxigenin]	95.1	74	63.2	21.5	13	> 100	90	16.6	0.964	1.87	99.7	92.2	93.7	39.5	11.2	91.6	89	78.4	7.34	2.31
Sc1ncnc2nc[nH]c12 [6-mercaptopurine]	> 100	95.1	92.6	84.3	93.1	94.8	97.6	44.2	35.1	16.3	89.3	> 100	99.8	88.3	97.9	80.3	> 100	86.2	75.1	73
CCOC(=O)N1c2ccc(C(F)(F)F)cc2[C@@H](N(Cc2cc(C(F)(F)F)cc(C(F)(F)F)c2)C(=O)OC)C[C@H]1CC [Torcetrapib]	93.1	72.9	92.6	95.4	65.3	97	62.9	95.2	88.7	22.4	89.2	80.7	> 100	> 100	50.4	92.3	84.8	96.1	93.3	65.7
Nc1ccn([C@@H]2O[C@H](CO)[C@@H](O)[C@@H]2O)c(=O)n1 [Cytarabine]	99.3	96.1	76.9	84.9	60.7	> 100	39.5	46.5	11.6	5	> 100	78.9	89.5	86.6	36.2	90.3	91.5	96.1	89.1	22.4
C[C@]12O[C@H](C[C@]1(O)CO)n1c3ccccc3c3c4c(c5c6ccccc6n2c5c31)CNC4=O [Lestaurtinib]	93.5	54.2	22.3	22.1	< 0	90.1	53	69	16	8.21	87.2	66.8	73.2	93.9	8.53	87.6	75.8	61.9	54.6	0.632
